# According to article PMC6331991, “Anemarrhena asphodeloides Non-Steroidal Saponin Components Alter the Pharmacokinetic Profile of Its Steroidal Saponins in Rat” (Molecules, 2015):
# Read-outs that look alike come from different tables or passages of the source.
# Legend:
# [1] = Stability of analytes in rat plasma QC samples (auto-sampler, long-term, freeze-thaw); assay type: in vitro ADME; settings: n = 6; for Stability, Auto-Sampler for 24 h, Mean: 4 °C; for Stability, Freeze–Thaw Cycles, Mean: three cycles −80 °C to room temperature
# Method: Stock solutions were separately prepared by dissolving the four accurately weighed standard reference compounds in a mixture of 50% acetonitrile. Then, the four stock solutions were mixed and diluted with 50% acetonitrile to prepare a final mixed standard solution containing 650.00 ng/mL of timosaponin BII, 620.00 ng/mL of anemarsaponin BIII, 485.00 ng/mL of timosaponin AIII, 530.00 ng/mL of timosaponin E1. A series of working solutions were freshly prepared by diluting mixed standard solution with 50% acetonitrile to the appropriate concentration. The internal standard solution of ginsenoside Re was prepared to the concentration of 920 ng/mL in 50% acetonitrile. For the validation of the method, three concentrations of standard solution containing timosaponin BII (5.20, 52.00 and 520 ng/mL), anemarsaponin BIII (4.96, 49.60 and 496.00 ng/mL), timosaponin AIII (3.88, 38.8 and 388 ng/mL), timosaponin E1 (4.24, 42.40 and 424.00 ng/mL) were used for preparing the QC plasma samples. The stability experiments were measured by analyzing replicates (n = 6) of three QC samples during the sample storing and processing procedures. For all stability experiments, freshly prepared stability testing QC samples were evaluated by using freshly prepared standard curve for the measurement. The post-preparation stability was tested by determined of the extracted QC samples stored in the auto-sampler (4 °C) for 24 h. The freeze and thaw stability were determined after three freeze-thaw cycles (−80 °C to room temperature). Long-term stability in rat plasma stored at −80 °C was studied for a period of one month.
# [2] = Pharmacokinetic study of four steroidal saponins in rat plasma after oral administration of A. asphodeloides fractions (UPLC-MS/MS); assay type: in vivo, Sprague-Dawley rats; settings: for AUC(0-t) / Cmax / half-life / Tmax: male, Sprague-Dawley; for AUC(0-t) / Cmax / half-life / Tmax / T1/2: rat plasma, single oral dose, n = 6, mean ± S.D.; for AUC(0-t): read-out: AUC0–t; for Cmax: read-out: Cmax; for half-life: read-out: T1/2 (converted); for Tmax: read-out: Tmax; for shape of plasma concentration-time curve: after oral administration
# Method: The dried A. asphodeloides were chopped into slices before using. The A. asphodeloides was immersed in water (1:10, w/v) and extracted twice by refluxing for 2 h. After filtration, the supernatant was condensed to a certain volume under reduced pressure, and 95% ethanol was added to the water extract filtrates until the concentration of ethanol was 80%. The precipitate was filtered as the macromolecular fraction (MF), the ethanol supernatant was concentrated under reduced pressure to a certain volume under vacuum and then purified by gradient elution with water, 40% ethanol and 70% ethanol from an AB-8 MARO porous resin column and then the water-eluted fraction was combined with the 40% ethanol-eluted fraction as the small molecule fraction (SF) and the 70% ethanol eluted fraction was the A. asphodeloides saponins extract (ASE). All of the residues were lyophilized and the resulting dry powder was stored at 4 °C before usage. The contents of four steroidal saponins in ASE dry powder were measured quantitatively by the external standard method using the same chromatography conditions as described above. The contents of timosaponin BII, anemarsaponin BIII, timosaponin AIII and timosaponin E1 in ASE were 429.12, 89.81, 59.13 and 41.25 mg/g, respectively.
# Frozen plasma samples were unfrozen at room temperature and treated as follows: to each 200 µL plasma sample, 20 µL of IS (920 ng/mL ginsenoside Re) working solution and 600 µL of acetonitrile were added. After vortexing for 2 min and centrifugation at 13,000 rpm at 4 °C for 10 min the supernatant was transferred into a new tube and evaporated to dryness in a rotary evaporator at 39 °C and the residue was reconstituted in 100 µL of 0.1% formic acid–acetonitrile (50:50, v/v), vortexed for 2 min and centrifuged at 13,000 rpm at 4 °C for 10 min. The supernatant was transferred to an autosampler vial and an aliquot of 2 μL was injected onto the UPLC-MS/MS system for analysis.
# Male Sprague-Dawley rats (250–280 g) were obtained from the Shanghai Slac Laboratory Animal Co., Ltd. (Shanghai, China). All animals were kept in an environmentally controlled breeding room (temperature: 20–25 °C, humidity: 55%–65%) for 1 week before the experiments started. Animal welfare and experimental procedures were strictly in accordance with the ethical norms of the Nanjing University of Chinese Medicine. All rats were fasted for 12 h with free access to water prior to the experiments, twenty-four rats were divided into four groups and then were given a single dose of ASE, ASE-SF, AS-MF, AS-M-SF. A 40 mg/mL ASE (the amount of MF, SF added to group AS-MF, ASE-SF, AS-M-SF were based on the proportion extracted from A. asphodeloides) aqueous solution in each group was administered orally at a dose of 400 mg/kg, which contained 171.61, 35.92, 23.62, 16.53 mg/kg of timosaponin BII, anemarsaponin BIII, timosaponin AIII, timosaponin E1, respectively.
# About 400 μL blood samples were collected from venipuncture before intragastric gavage and at 0.083, 0.25, 0.5, 1, 1.5, 2, 4, 6, 8, 10, 12, 24 h after a single oral administration. The blood samples were immediately transferred to heparinized tubes and centrifuged at 3000 rpm for 10 min, and the supernatant was transferred into 2.0 mL Eppendorf tubes and stored at −80 °C prior to analysis. Blank plasma was obtained from the rat without oral administration and was used to investigate the assay development and validation.
# To calculate the pharmacokinetic parameters of analytes in different group, concentrations–time dada were analyzed by DAS 3.2 software (Mathematical Pharmacology Professional Committee of China, Shanghai, China, 2011). Data were measured as the mean ± standard deviation (S.D.) with triplicate measurements. The identification of significances between different groups was executed with Student’s t-test. A p value < 0.05 was considered statistically significant.
# [3] = high concentration (388.00–520.00 ng/mL)
# [4] = low concentration (3.88–5.20 ng/mL)
# [5] = middle concentration (38.80–52.00 ng/mL)
# [6] = rat, plasma, po, 400 mg/kg, Group ASE (ASE 400 mg/kg)
# [7] = rat, plasma, po, 400 mg/kg, Group ASE-MF (ASE 400 mg/kg plus macromolecular fraction)
# [8] = rat, plasma, po, 400 mg/kg, Group ASE-MF
# [9] = rat, plasma, po, 400 mg/kg, Group ASE-SF (ASE 400 mg/kg plus small molecule fraction)
# [10] = rat, plasma, po, 400 mg/kg, Group ASE-SF
# [11] = rat, plasma, po, 400 mg/kg, Group ASE-SF-MF
SMILES,"Stability, Auto-Sampler for 24 h, Mean [1, 3] [%]","Stability, at −80 °C for 1 Month, Mean [1, 3] [%]","Stability, Freeze–Thaw Cycles, Mean [1, 3] [%]","Stability, Auto-Sampler for 24 h, Mean [1, 4] [%]","Stability, at −80 °C for 1 Month, Mean [1, 4] [%]","Stability, Freeze–Thaw Cycles, Mean [1, 4] [%]","Stability, Auto-Sampler for 24 h, Mean [1, 5] [%]","Stability, at −80 °C for 1 Month, Mean [1, 5] [%]","Stability, Freeze–Thaw Cycles, Mean [1, 5] [%]","AUC(0-t) [2, 6] [ng·h/mL]","Cmax [2, 6] [ng/mL]","half-life [2, 6] [h]","Tmax [2, 6] [h]","Cmax [2, 7] [ng/mL]","AUC(0-t) [2, 8] [ng·h/mL]","half-life [2, 8] [h]","Tmax [2, 8] [h]","Cmax [2, 9] [ng/mL]","half-life [2, 10] [h]","Tmax [2, 10] [h]",also measured
"C[C@H]1CC[C@@]2(OC1)O[C@H]1C[C@H]3[C@@H]4CC[C@@H]5C[C@@H](O[C@@H]6O[C@H](CO)[C@H](O)[C@H](O)[C@H]6O[C@@H]6O[C@H](CO)[C@@H](O)[C@H](O)[C@H]6O)CC[C@]5(C)[C@H]4CC[C@]3(C)[C@H]1[C@@H]2C [Timosaponin AIII, timosaponin AIII]",96.4,99.0,102.8,100.9,100.4,102.2,97.0,101.7,96.2,644 ± 59,65.2 ± 4.16,5.31 ± 3.03,5.66 ± 0.81,63.6 ± 3.16,688 ± 46.3,6.95 ± 6.23,4.33 ± 0.81,69.8 ± 2.86,8.2 ± 2.74,5.33 ± 1.03,"Cmax ([2]; rat, plasma, po, 400 mg/kg, Group ASE-SF-MF (ASE 400 mg/kg plus small molecule and macromolecular fraction)): 74 ± 6.18 ng/mL; AUC(0-t) [2, 11]: 890 ± 57.2 ng·h/mL; half-life [2, 11]: 8.94 ± 1.24 h; Tmax [2, 11]: 5.66 ± 0.81 h; T1/2 ([2]; Group ASE-SF): significantly increased; shape of plasma concentration-time curve ([2]; rat): single peak"
"C[C@@H](CC[C@@]1(O)O[C@H]2C[C@H]3[C@@H]4CC[C@@H]5C[C@@H](O[C@@H]6O[C@H](CO)[C@H](O)[C@H](O)[C@H]6O[C@@H]6O[C@H](CO)[C@@H](O)[C@H](O)[C@H]6O)CC[C@]5(C)[C@H]4CC[C@]3(C)[C@H]2[C@@H]1C)CO[C@@H]1O[C@H](CO)[C@@H](O)[C@H](O)[C@H]1O [Timosaponin BII, timosaponin BII]",88.3,95.4,91.4,95.3,94.7,98.0,98.1,98.2,95.5,2040 ± 146,271 ± 22.5,3.21 ± 1.17,3.75 ± 1.78,287 ± 11.9,1980 ± 104,3.34 ± 1.19,3.41 ± 1.43,415 ± 41.8,3.63 ± 1.28,5 ± 1.67,"AUC(0-t) ([2]; 400 mg/kg, Group ASE-SF-MF): 3310 ± 575 ng·h/mL; half-life ([2]; 400 mg/kg, Group ASE-SF-MF): 5.18 ± 1.88 h; Tmax ([2]; 400 mg/kg, Group ASE-SF-MF): 3.17 ± 2.21 h; AUC(0-t) [2, 10]: 3090 ± 628 ng·h/mL; Cmax ([2]; Group ASE-SF-MF (ASE 400 mg/kg plus small molecule and macromolecular fraction)): 400 ± 39.6 ng/mL; T1/2 ([2]; Group ASE-SF): no obvious difference; shape of plasma concentration-time curve ([2]; rat): double peak"
